Numbering of substitutions follows the chain as printed.

The target of the first assay is T1, Type-2 angiotensin II receptor (Homo sapiens, UniProt P50052).
T1 sequence (P50052 whole entry): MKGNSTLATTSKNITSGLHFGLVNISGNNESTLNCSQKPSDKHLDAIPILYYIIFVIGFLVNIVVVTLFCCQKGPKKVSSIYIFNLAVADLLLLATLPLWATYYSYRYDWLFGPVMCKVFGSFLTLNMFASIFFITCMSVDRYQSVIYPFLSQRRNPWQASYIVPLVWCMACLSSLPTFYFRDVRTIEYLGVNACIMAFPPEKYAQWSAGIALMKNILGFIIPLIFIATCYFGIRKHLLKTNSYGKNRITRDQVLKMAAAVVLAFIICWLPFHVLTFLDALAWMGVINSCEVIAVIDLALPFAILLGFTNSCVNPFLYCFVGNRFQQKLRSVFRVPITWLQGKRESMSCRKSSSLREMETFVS
Nature of the assay: […] inhibitory concentration against AT2 receptor of human adrenal membrane.
With `CCCc1nc2ccc(NC(=O)N3CCOCC3)cc2c(=O)n1Cc1ccc(-c2ccccc2S(=O)(=O)NC(=O)OCCC(C)C)cc1F`, the 50% inhibitory concentration (IC50) (as a rule, the midpoint of a concentration-inhibition curve) is 3300 pM.
Same read-out and setting: under `CCc1nc2ccc(NC(=O)N(C)C(C)C)cc2c(=O)n1Cc1ccc(-c2ccccc2S(=O)(=O)NC(=O)COCC(C)C)cc1F` stands 11000 pM.
The same measure, in the same setting: then `CCc1nc2ccc(NC(=O)N3CCOCC3)cc2c(=O)n1Cc1ccc(-c2ccccc2S(=O)(=O)NC(=O)OCCC(C)C)cc1F`, with 65000 pM; and `CCNC(=O)Nc1ccc2nc(CC)n(Cc3ccc(-c4ccccc4S(=O)(=O)NC(=O)OCCC4CC4)cc3F)c(=O)c2c1`, with 9800 pM.

For the next assay, the target named is T2, Type-1 angiotensin II receptor (Homo sapiens, UniProt P30556).
T2 sequence (P30556 whole entry): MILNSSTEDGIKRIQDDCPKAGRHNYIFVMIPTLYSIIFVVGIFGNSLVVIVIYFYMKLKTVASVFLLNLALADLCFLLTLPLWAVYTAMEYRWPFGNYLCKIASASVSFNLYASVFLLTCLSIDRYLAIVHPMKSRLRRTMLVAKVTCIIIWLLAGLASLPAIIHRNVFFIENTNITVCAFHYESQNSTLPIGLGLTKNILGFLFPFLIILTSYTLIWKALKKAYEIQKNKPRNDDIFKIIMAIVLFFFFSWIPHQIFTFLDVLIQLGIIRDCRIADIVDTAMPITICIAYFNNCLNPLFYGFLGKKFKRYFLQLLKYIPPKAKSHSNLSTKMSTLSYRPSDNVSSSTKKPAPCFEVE
Nature of the assay: […] inhibitory concentration against Angiotensin II receptor, type 1 of human adrenal membrane.
As for `CCCc1nc2ccc(NC(=O)N3CCOCC3)cc2c(=O)n1Cc1ccc(-c2ccccc2S(=O)(=O)NC(=O)OCCC(C)C)cc1F`, half-maximal inhibition (IC50) required 710 pM.
Same read-out and setting: under `CCc1nc2ccc(NC(=O)N(C)C(C)C)cc2c(=O)n1Cc1ccc(-c2ccccc2S(=O)(=O)NC(=O)COCC(C)C)cc1F` stands 65000 pM; under `CCc1nc2ccc(NC(=O)N3CCOCC3)cc2c(=O)n1Cc1ccc(-c2ccccc2S(=O)(=O)NC(=O)OCCC(C)C)cc1F`, 18000 pM; under `CCNC(=O)Nc1ccc2nc(CC)n(Cc3ccc(-c4ccccc4S(=O)(=O)NC(=O)OCCC4CC4)cc3F)c(=O)c2c1`, 12000 pM.

The next assay has as its target Angiotensin II receptor (Rattus norvegicus) (UniProt P29089+P25095+P35351). Nature of the assay: Ratio of inhibitory concentration against AT2 receptor and AT1 receptor of rat adrenal membrane.
Consider `CCCc1nc2ccc(NC(=O)N3CCOCC3)cc2c(=O)n1Cc1ccc(-c2ccccc2S(=O)(=O)NC(=O)OCCC(C)C)cc1F`, for which the Ratio worked out at 4.3.
Still for that read-out and setting: under `CCc1nc2ccc(NC(=O)N(C)C(C)C)cc2c(=O)n1Cc1ccc(-c2ccccc2S(=O)(=O)NC(=O)COCC(C)C)cc1F` stands 0.3; under `CCc1nc2ccc(NC(=O)N3CCOCC3)cc2c(=O)n1Cc1ccc(-c2ccccc2S(=O)(=O)NC(=O)OCCC(C)C)cc1F`, 1.5; under `CCNC(=O)Nc1ccc2nc(CC)n(Cc3ccc(-c4ccccc4S(=O)(=O)NC(=O)OCCC4CC4)cc3F)c(=O)c2c1`, 0.92.

A further assay addresses T3, Type-2 angiotensin II receptor (Rattus norvegicus, UniProt P35351).
T3 sequence (P35351 whole entry): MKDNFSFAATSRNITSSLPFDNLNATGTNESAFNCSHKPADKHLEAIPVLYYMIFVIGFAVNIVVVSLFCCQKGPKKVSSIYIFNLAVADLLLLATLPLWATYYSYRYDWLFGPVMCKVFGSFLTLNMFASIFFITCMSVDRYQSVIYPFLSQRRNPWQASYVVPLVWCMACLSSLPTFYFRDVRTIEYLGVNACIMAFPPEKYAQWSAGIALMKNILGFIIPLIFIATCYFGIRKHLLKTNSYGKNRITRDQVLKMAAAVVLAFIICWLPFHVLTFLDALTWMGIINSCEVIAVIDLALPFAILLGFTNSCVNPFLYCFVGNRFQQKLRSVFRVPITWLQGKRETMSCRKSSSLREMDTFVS
Nature of the assay: […] inhibitory concentration against Angiotensin II, type 2 of rat midbrain membrane.
For the compound `CCCc1nc2ccc(NC(=O)N3CCOCC3)cc2c(=O)n1Cc1ccc(-c2ccccc2S(=O)(=O)NC(=O)OCCC(C)C)cc1F`, the concentration for half-maximal inhibition (IC50) came out at 480 pM.
Compound `CCc1nc2ccc(NC(=O)N(C)C(C)C)cc2c(=O)n1Cc1ccc(-c2ccccc2S(=O)(=O)NC(=O)COCC(C)C)cc1F` registered an IC50 of 210 pM.
Same read-out and setting: under `CCc1nc2ccc(NC(=O)N3CCOCC3)cc2c(=O)n1Cc1ccc(-c2ccccc2S(=O)(=O)NC(=O)OCCC(C)C)cc1F` stands 310 pM; under `CCNC(=O)Nc1ccc2nc(CC)n(Cc3ccc(-c4ccccc4S(=O)(=O)NC(=O)OCCC4CC4)cc3F)c(=O)c2c1`, 560 pM.

A further assay deals with T4, Angiotensin II receptor (AT-1) type-1 (Rattus norvegicus, UniProt P29089+P25095).
T4 sequence (P29089 whole entry): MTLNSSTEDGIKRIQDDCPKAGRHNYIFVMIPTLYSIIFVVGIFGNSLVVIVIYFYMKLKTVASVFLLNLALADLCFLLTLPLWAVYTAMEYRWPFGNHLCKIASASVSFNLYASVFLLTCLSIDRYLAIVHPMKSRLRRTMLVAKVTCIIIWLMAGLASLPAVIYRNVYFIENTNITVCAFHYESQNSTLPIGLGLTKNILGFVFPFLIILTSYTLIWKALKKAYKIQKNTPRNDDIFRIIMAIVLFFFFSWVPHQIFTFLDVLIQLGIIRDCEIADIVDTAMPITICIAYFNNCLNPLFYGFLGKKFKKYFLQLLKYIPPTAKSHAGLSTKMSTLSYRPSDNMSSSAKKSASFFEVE
T4 sequence (P25095 whole entry): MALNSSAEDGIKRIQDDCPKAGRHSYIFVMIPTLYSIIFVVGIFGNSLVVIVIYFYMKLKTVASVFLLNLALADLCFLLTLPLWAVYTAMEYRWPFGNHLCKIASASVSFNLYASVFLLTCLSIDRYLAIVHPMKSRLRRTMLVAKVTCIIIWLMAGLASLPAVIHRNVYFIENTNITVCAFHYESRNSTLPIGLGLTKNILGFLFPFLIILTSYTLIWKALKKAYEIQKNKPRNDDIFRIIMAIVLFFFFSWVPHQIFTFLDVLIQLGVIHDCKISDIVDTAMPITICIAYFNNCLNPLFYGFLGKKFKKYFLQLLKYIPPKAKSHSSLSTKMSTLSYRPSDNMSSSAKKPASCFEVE
Put plainly: […] inhibitory concentration against Angiotensin II receptor, type 1 of rat adrenal membrane.
In turn, `CCCc1nc2ccc(NC(=O)N3CCOCC3)cc2c(=O)n1Cc1ccc(-c2ccccc2S(=O)(=O)NC(=O)OCCC(C)C)cc1F` displayed a concentration for half-maximal inhibition (IC50) of 130 pM.
`CCc1nc2ccc(NC(=O)N(C)C(C)C)cc2c(=O)n1Cc1ccc(-c2ccccc2S(=O)(=O)NC(=O)COCC(C)C)cc1F` yielded a half-maximal inhibitory concentration (IC50) of 2000 pM.
Same read-out and setting: then `CCc1nc2ccc(NC(=O)N3CCOCC3)cc2c(=O)n1Cc1ccc(-c2ccccc2S(=O)(=O)NC(=O)OCCC(C)C)cc1F`, with 660 pM; and `CCNC(=O)Nc1ccc2nc(CC)n(Cc3ccc(-c4ccccc4S(=O)(=O)NC(=O)OCCC4CC4)cc3F)c(=O)c2c1`, with 640 pM.

The next assay has as its target T3, Type-2 angiotensin II receptor. Put plainly: […] inhibitory concentration against AT2 receptor of rat adrenal membrane.
With `CCCc1nc2ccc(NC(=O)N3CCOCC3)cc2c(=O)n1Cc1ccc(-c2ccccc2S(=O)(=O)NC(=O)OCCC(C)C)cc1F`, the 50% inhibitory concentration (IC50) worked out at 500 pM.
Same read-out and setting: under `CCc1nc2ccc(NC(=O)N(C)C(C)C)cc2c(=O)n1Cc1ccc(-c2ccccc2S(=O)(=O)NC(=O)COCC(C)C)cc1F` stands 610 pM.
Still for that read-out and setting: then `CCc1nc2ccc(NC(=O)N3CCOCC3)cc2c(=O)n1Cc1ccc(-c2ccccc2S(=O)(=O)NC(=O)OCCC(C)C)cc1F`, with 950 pM.
`CCNC(=O)Nc1ccc2nc(CC)n(Cc3ccc(-c4ccccc4S(=O)(=O)NC(=O)OCCC4CC4)cc3F)c(=O)c2c1` showed a 50% inhibitory concentration (IC50) of 800 pM.

The species named for the next assay is Oryctolagus cuniculus. Nature of the assay: Ratio of inhibitory concentration against AT2 receptor of rat midbrain to AT1 receptor of rabbit aorta.
In the case of `CCCc1nc2ccc(NC(=O)N3CCOCC3)cc2c(=O)n1Cc1ccc(-c2ccccc2S(=O)(=O)NC(=O)OCCC(C)C)cc1F`, the Ratio stood at 2.3.
Still for that read-out and setting: then `CCc1nc2ccc(NC(=O)N(C)C(C)C)cc2c(=O)n1Cc1ccc(-c2ccccc2S(=O)(=O)NC(=O)COCC(C)C)cc1F`, with 0.1.
Turning to `CCc1nc2ccc(NC(=O)N3CCOCC3)cc2c(=O)n1Cc1ccc(-c2ccccc2S(=O)(=O)NC(=O)OCCC(C)C)cc1F`, the Ratio amounted to 0.16.
Same read-out and setting: then `CCNC(=O)Nc1ccc2nc(CC)n(Cc3ccc(-c4ccccc4S(=O)(=O)NC(=O)OCCC4CC4)cc3F)c(=O)c2c1`, with 0.97.

For a further assay, the target named is Angiotensin II receptor (Homo sapiens) (UniProt P30556+P50052). Put plainly: Ratio of inhibitory concentration against AT2 receptor and AT1 receptor of human adrenal membrane.
Take `CCCc1nc2ccc(NC(=O)N3CCOCC3)cc2c(=O)n1Cc1ccc(-c2ccccc2S(=O)(=O)NC(=O)OCCC(C)C)cc1F`: the Ratio is 4.7.
For the compound `CCc1nc2ccc(NC(=O)N(C)C(C)C)cc2c(=O)n1Cc1ccc(-c2ccccc2S(=O)(=O)NC(=O)COCC(C)C)cc1F`, the Ratio was 0.18.
Take `CCNC(=O)Nc1ccc2nc(CC)n(Cc3ccc(-c4ccccc4S(=O)(=O)NC(=O)OCCC4CC4)cc3F)c(=O)c2c1`: the Ratio was 0.77.

The target of the next assay is T5, Type-1 angiotensin II receptor (Oryctolagus cuniculus, UniProt P34976).
T5 sequence (P34976 whole entry): T2 sequence (P30556 whole entry) with I2M, V49A, I254V, I270V, R272H, R311K, T349S, A353V
Nature of the assay: […] inhibitory concentration against Angiotensin II receptor, type 1 of rabbit aorta membrane.
As for `CCCc1nc2ccc(NC(=O)N3CCOCC3)cc2c(=O)n1Cc1ccc(-c2ccccc2S(=O)(=O)NC(=O)OCCC(C)C)cc1F`, the IC50 is 240 pM.
Still for that read-out and setting: under `CCc1nc2ccc(NC(=O)N(C)C(C)C)cc2c(=O)n1Cc1ccc(-c2ccccc2S(=O)(=O)NC(=O)COCC(C)C)cc1F` stands 2200 pM; under `CCc1nc2ccc(NC(=O)N3CCOCC3)cc2c(=O)n1Cc1ccc(-c2ccccc2S(=O)(=O)NC(=O)OCCC(C)C)cc1F`, 2000 pM; under `CCNC(=O)Nc1ccc2nc(CC)n(Cc3ccc(-c4ccccc4S(=O)(=O)NC(=O)OCCC4CC4)cc3F)c(=O)c2c1`, 730 pM.

The values are drawn from ChEMBL document CHEMBL1150477, “Development of angiotensin II antagonists with equipotent affinity for human AT1 and AT2 receptor subtypes” (Bioorg Med Chem Lett, 1994).
